“And” between values parts separate entries of the source, which are not always exact repeats. Identical values can stand only once.
Tests used:
Assay type in all cases: cell-based
[1] = test system: Sox17 expression in human embryonic stem cells (H9 line); experiment: High content screening assay: Sox17 protein expression (differentiation); details: for SOX-17 Expression Fold over Wnt 3a/AA control: total intensity normalised to Wnt 3a/AA control
Procedure, shortened: (§1)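 H9 hESCs on MATRIGEL treated days 1-2 with 10 μM compound in DMEM:F12, 0.5% FCS, 100 ng/ml activin A; days 3-4 with 2% FCS plus activin A without compound. Fixed cells immunostained for Sox17 or HNF-3beta with Draq5 nuclear counterstain. Cell number and staining intensity quantified by high-content imaging, 12 fields/well.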

[2] = test system: human embryonic stem cells (H9 or H1 lines); experiment: Plate reader (MTS) proliferation assay; details: for activity at 10 µM: Homo sapiens, Embryonic stem cell, 96 h; for activity at 10 µM / % Control Value (proliferation): 10 μM test compound with 100 ng/ml activin A on days 1-2, MTS OD490 on day 4, vs Activin A/Wnt3a positive control, strong and moderate hits; for Average: average of replicate raw data; for Raw Data: replicate wells, plate reader proliferation screen of GSK-3B inhibitors
Procedure, shortened: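 H9 or H1 cells on Matrigel, washed, then given DMEM:F12 with 0.5% FCS, 100 ng/ml activin A and 10 μM compound (days 1–2), then 2% FCS plus activin A (days 3–4). MTS added day 4, OD490 read after 1.5–4 h at 37 °C; triplicates as percent of activin A/Wnt3a control.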

[3] = test system: HNF-3beta expression in human embryonic stem cells (H9 line); experiment: High content screening assay: HNF-3beta protein expression (differentiation); details: for HNF3β Expression, Fold over Wnt 3a/AA control: 10 μM test compound with 100 ng/ml activin A on days 1-2, H9, total intensity by IN Cell Analyzer, strong and moderate hits; for HNF-3b Expression Fold over Wnt 3a/AA control: total intensity normalised to Wnt 3a/AA control
Procedure, shortened: as §1

[4] = 10 μM test compound with 100 ng/ml activin A on days 1-2, H9, total intensity by IN Cell Analyzer, strong and moderate hits

Compound | SOX-17 Expression Total Intensity [1] | activity at 10 µM [2] [%] | Average [2] | HNF-3b Expression Total Intensity [3] | fold induction at 10 µM ([1]; Homo sapiens, Embryonic stem cell, 10 μM test compound with 100 ng/ml activin A on days 1-2, H9, total intensity by IN Cell Analyzer, strong and moderate hits, read-out: SOX17 Expression, Fold over Wnt 3a/AA control) | SOX17 Expression, Fold over Wnt 3a/AA control [1, 4] | SOX-17 Expression Fold over Wnt 3a/AA control [1] [fold] | % Control Value (proliferation) [2] [%] | Raw Data [2] | HNF3β Expression, Fold over Wnt 3a/AA control [3] | HNF-3b Expression Fold over Wnt 3a/AA control [3] [fold]
CN(C)c1cccc(-n2cc(C3=C(c4nn(CCO)c5ccccc45)C(=O)NC3=O)c3ccccc32)c1 [Compound 145, 3-{1-[3-(Dimethylamino)phenyl]-1H-indol-3-yl}-4-[1-(2-hydroxyethyl)-1H-indazol-3-yl]-1H-pyrrole-2,5-dione] | 238555000 | 61.1 | 0.9191 | 82808745 | – | – | – | – | – | – | –
CN(C)c1ccc(-n2cc(C3=C(c4nn(CCO)c5ccccc45)C(=O)NC3=O)c3cc(Cl)ccc32)cn1 [Compound 148, 3-{5-Chloro-1-[6-(dimethylamino)pyridin-3-yl]-1H-indol-3-yl}-4-[1-(2-hydroxyethyl)-1H-indazol-3-yl]-1H-pyrrole-2,5-dione] | 699160000 | 106 | 1.4937 | 248855000 | 0.719 | – | – | – | – | – | –
COC(=O)c1cncc(-n2cc(C3=C(c4nn(CCO)c5ccccc45)C(=O)NC3=O)c3cc(Cl)ccc32)c1 [Compound 150, Methyl 5-(5-chloro-3-{4-[1-(2-hydroxyethyl)-1H-indazol-3-yl]-2,5-dioxo-2,5-dihydro-1H-pyrrol-3-yl}-1H-indol-1-yl)pyridine-3-carboxylate] | 351070000 | 63.3 | 0.9475 | 288075000 | – | – | – | – | – | – | –
OCCC#Cc1nc(-c2ccc(F)cc2)c(-c2ccncc2)n1CCCc1ccccc1 [Compound 158, 4-[4-(4-Fluorophenyl)-1-(3-phenylpropyl)-5-pyridin-4-yl-1H-imidazol-2-yl]but-3-yn-1-ol] | 324450000 | 84.7 | 1.2242 | 269025000 | – | – | – | – | – | – | –
O=C1NC(=O)C2=C1c1cn(c3ccccc13)CCOCCOCCOCCn1cc2c2ccccc21 [Compound 163, 6,7,9,10,12,13,15,16-Octahydro-23H-5,26:17,22-di(metheno)dibenzo[k,q]pyrrolo[3,4-n][1,4,7,10,19]trioxadiazacyclohenicosine-23,25(24H)-dione] | 28506437 | – | 1.3242 | 85245671 | – | 0.9266 Fold over Wnt 3a/AA control | 0.9266 | 142.3 | 1.3764 and 1.2753 and 1.3208 | 3.1115 Fold over Wnt 3a/AA control | 3.1115
O=C1NC(=O)C2=C1c1cn(c3ccccc13)CCOCCOCCn1cc2c2ccccc21 [Compound 164, 6,7,9,10,12,13-Hexahydro-20H-5,23:14,19-di(metheno)dibenzo[h,n]pyrrolo[3,4-k][1,4,7,16]dioxadiazacyclooctadecine-20,22(21H)-dione] | 85949 | – | 0.6350 | 1300640 | – | – | 0.0028 | 68.2 | 0.6923 and 0.5994 and 0.6134 | – | 0.0475
O=C1NC(=O)C2=C1c1cn(c3ccccc13)CCOCCOCCOCCOCCn1cc2c2ccccc21 [Compound 165, 10,11,13,14,16,17,19,20,22,23-Decahydro-1H-9,4:24,29-di(metheno)dibenzo[n,t]pyrrolo[3,4-q][1,4,7,10,13,22]tetraoxadiazacyclotetracosine-1,3(2H)-dione] | 32703235 | – | 1.8175 | 149772525 | – | 1.0630 Fold over Wnt 3a/AA control | 1.0630 | 195.3 | 1.7896 and 1.4721 and 2.1908 | 5.4668 Fold over Wnt 3a/AA control | 5.4668

Source: US20130337564A1, “Treatment of Pluripotent Cells” (Janssen Biotech, Inc., priority 2012, published 2013)
